The target in the experiment is G-protein coupled receptor 6 (Homo sapiens, UniProt P46095). Kind of experiment: A.1 Inhibition of cAMP Activity of GPR6 In Vitro Assay: This cell based assay measures the ability of compounds to inhibit the constitutive cAMP activity of GPR6 receptor expressed in CHO-K1 cells. CHO cells were stably expressed with GPR6 receptor, whose expression is controlled by a tetracycline inducible element. The cells were cultured in medium containing F12K, 10% FBS, 1% Penn/Strep, 200 ug/mL Hygromycin. GPR6 receptor expression was induced for 20 hrs with 10 µg/ml doxycycline (sigma D9891) in growth media. After addition of doxycycline cells were plated at a density of 250-500 cells per well in half-volume black clear bottom plates (Costar) and place in an incubator (37°, 5% C(O)2) for 20 hours prior to cAMP assays.Culture media was removed from cells and they were washed with […] of Ringer's Buffer (MgCl2 0.047 mg/mL, NaH2PO4 0.18 mg/mL, Na2HPO4 0.1 mg/mL, KCl 0.34 mg/mL, NaHC(O)3 1.26 mg/mL, D-glucose 1.8 mg/mL, NaCl 7 mg/mL; pH=7.4). Compounds suspended in DMSO were diluted in Ringer's Buffer containing 0.5% fatty acid free BSA and incubated on cells for 45 min at 37° and 5% C(O)2. After incubation cells were incubated for 10 min at room temp with Eu-cAMP tracer solution from a Perkin Elmer Lance HTRF UltracAMP assay kit (TRF0264).

The term EC50 denotes the concentration that produces a half-maximal response.

Chain of G-protein coupled receptor 6 (P46095 whole entry): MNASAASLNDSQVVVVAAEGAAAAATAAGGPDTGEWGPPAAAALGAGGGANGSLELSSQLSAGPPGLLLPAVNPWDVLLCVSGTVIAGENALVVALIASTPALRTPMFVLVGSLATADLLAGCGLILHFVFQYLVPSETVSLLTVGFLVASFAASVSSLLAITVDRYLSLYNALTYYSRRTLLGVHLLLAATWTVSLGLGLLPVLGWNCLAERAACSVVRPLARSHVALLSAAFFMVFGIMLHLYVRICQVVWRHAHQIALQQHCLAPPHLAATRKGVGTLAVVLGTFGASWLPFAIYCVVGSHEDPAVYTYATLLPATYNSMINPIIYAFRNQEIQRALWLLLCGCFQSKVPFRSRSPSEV

With `CC(C)Nc1nc(COCCN(C)C)c(C#N)nc1N1CCN(Cc2ccc(F)cc2F)CC1`, the EC50 stood at 62.5 µM.

(Values after ChEMBL document CHEMBL5726883, “Pyrazines as modulators of GPR6” (2019).)
